Data as given in patent US20240287138A1, “CYCLIC PEPTIDES FOR INHIBITING TNF RECEPTOR 1 ACTIVITY” (Merck Sharp & Dohme LLC, priority 2023, published 2024).
Numbered stars: 1 amine (or outer) side, 2 acyl side, 3 side chain; on linkers, the order of the positions; unused ones are H or OH. Square brackets hold non-standard residues; d marks the D form. Peptide text beside a SMILES is read from it. * marks the point of attachment. Trp(βS-Me,7-OMe) = COc1cccc2c([C@H](C)[C@H](N)C(=O)O)c[nH]c12; X44 = NC(=O)c1ccc([C@@H](O)[C@H](N[*:1])C(=O)[*:2])cc1; X28 = NC(=O)c1ccc([C@H](O)[C@H](N[*:1])C(=O)[*:2])cc1; Phe(4-SO2NH2) = N[C@@H](Cc1ccc(S(N)(=O)=O)cc1)C(=O)O; Phe(2-F,4-COOH) = N[C@@H](Cc1ccc(C(=O)O)cc1F)C(=O)O; Trp(7-CN) = N#Cc1cccc2c(C[C@H](N)C(=O)O)c[nH]c12; Trp(7-Cl) = N[C@@H](Cc1c[nH]c2c(Cl)cccc12)C(=O)O; Ala(pyrimidin-5-yl) = N[C@@H](Cc1cncnc1)C(=O)O; Phe(4-CONH2) = NC(=O)c1ccc(C[C@H](N)C(=O)O)cc1; Phe(4-COOH) = N[C@@H](Cc1ccc(C(=O)O)cc1)C(=O)O; X64 = O=C([C@H](Cc1n[nH]c2ncccc12)N[*:1])[*:2]; 4Pal(3S-Me) = C[C@@H](c1ccncc1)[C@H](N)C(=O)O; Trp(7-aza) = N[C@@H](Cc1c[nH]c2ncccc12)C(=O)O; Pip(5R-OH) = O=C(O)[C@@H]1CC[C@@H](O)CN1; X1 = O=C([C@@H]1CC[C@H](N[*:1])C1)[*:2]; Gly(But-3-enyl) = C=CCC[C@H](N)C(=O)O; Pip(4-aza) = O=C(O)[C@@H]1CNCCN1; 4Pal = N[C@@H](Cc1ccncc1)C(=O)O; NMeE = CN[C@@H](CCC(=O)O)C(=O)O; dHyp = O=C(O)[C@H]1C[C@H](O)CN1; aThr = C[C@H](O)[C@H](N)C(=O)O; Ahp(2) = CCCCC[C@H](N)C(=O)O; αMeS = C[C@](N)(CO)C(=O)O; Carboxymethyl = O=C(O)C*; Nle = CCCC[C@H](N)C(=O)O; Sar = CNCC(=O)O

Columns and labels:
[1] = biological target: T1, TNFα-induced NF-κB signal transduction pathway (TNFR1 signaling) in THP-1 cells (Homo sapiens, UniProt P19438); experiment: THP-1 Lucia NF-κB reporter cell assay, inhibition of TNFα-induced NF-κB signaling; assay type: cell-based; details: THP-1 NF-κB Lucia reporter cells, 10 ng/mL TNFα, 16-18 h, secreted luciferase; read-out: THP-1 IC50
T1 sequence (P19438 30-455): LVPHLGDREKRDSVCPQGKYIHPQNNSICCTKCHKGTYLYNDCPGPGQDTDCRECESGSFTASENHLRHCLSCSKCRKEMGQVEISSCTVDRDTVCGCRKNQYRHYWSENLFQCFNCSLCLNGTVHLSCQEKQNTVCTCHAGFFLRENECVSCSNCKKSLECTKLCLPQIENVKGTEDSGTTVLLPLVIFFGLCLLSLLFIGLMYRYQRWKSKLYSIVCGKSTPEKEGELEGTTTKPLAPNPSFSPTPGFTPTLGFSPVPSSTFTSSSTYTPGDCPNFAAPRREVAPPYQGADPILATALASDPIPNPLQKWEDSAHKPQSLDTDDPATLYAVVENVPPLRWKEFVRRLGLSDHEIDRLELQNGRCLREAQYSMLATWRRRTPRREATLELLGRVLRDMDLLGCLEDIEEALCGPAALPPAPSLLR
Method in brief: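 Read-out: secreted Lucia luciferase luminescence (QUANTI-Luc) from supernatant after 16-18 h, 37 °C, 10 ng/mL rhTNFα. Peptide pretreatment 1 h at 37 °C; 20,000 cells/well, selection antibiotics omitted. IC50 via 4-parameter logistic model against min/max controls.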

[2] = biological target: T2, human soluble TNFR1 (sTNFR1) (Homo sapiens, UniProt P19438); experiment: Human sTNFR1-peptide displacement assay (LanthaScreen Eu TR-FRET binding assay)
T2 construct: made in house; host or cells: Sf21 (baculovirus)
T2 sequence (P19438 with tags, fused parts or gaps): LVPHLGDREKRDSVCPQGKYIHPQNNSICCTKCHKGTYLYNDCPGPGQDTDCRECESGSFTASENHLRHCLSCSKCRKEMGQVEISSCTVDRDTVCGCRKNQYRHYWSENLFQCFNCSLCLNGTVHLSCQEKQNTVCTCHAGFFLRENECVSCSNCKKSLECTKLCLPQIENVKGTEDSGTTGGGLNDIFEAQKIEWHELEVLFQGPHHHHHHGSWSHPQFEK
Method in brief: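 Readout is the 665/615 nm TR-FRET ratio (Eu anti-His donor, streptavidin-Alexa647 acceptor), normalized to DMSO and saturating displacer, fit by Morrison-based five-parameter logistic for Kd^app. His-tagged sTNFR1 (1-211) prebound to 100 nM biotinylated peptide SEQ ID NO.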

## CCCC[C@@H]1NC(=O)[C@@H]2CC[C@@H](C2)NC(=O)[C@H]([C@@H](C)c2c[nH]c3c(OC)cccc23)NC(=O)CN(C)C(=O)[C@H](Cc2ccc(OCC(=O)O)cc2)NC(=O)[C@H](Cc2ccc(S(N)(=O)=O)cc2)NC(=O)[C@](C)(CO)NC(=O)[C@H](Cc2c[nH]c3c(C#N)cccc23)NC(=O)[C@H](Cc2ccc(OCC(=O)O)cc2)NC(=O)[C@H](CC(N)=O)NC(=O)[C@H]2C[C@H](OCC(=O)O)CN2C(=O)[C@H](Cc2n[nH]c3ncccc23)NC(=O)[C@@H]2CC[C@@H](O)CN2C(=O)[C@H](Cc2cncnc2)NC1=O [SEQ ID NO. 89] (cyclo([X1][Nle][Ala(pyrimidin-5-yl)][Pip(5R-OH)][X64][dHyp](Carboxymethyl)NY(Carboxymethyl)[Trp(7-CN)][αMeS][Phe(4-SO2NH2)]Y(Carboxymethyl)[Sar][Trp(βS-Me,7-OMe)]))
[1]
  IC50: 1.2 nM
[2]
  Kd: 0.18 nM

## CCCC[C@@H]1NC(=O)[C@@H]2CC[C@@H](C2)NC(=O)[C@H]([C@@H](C)c2c[nH]c3c(OC)cccc23)NC(=O)CN(C)C(=O)[C@H]([C@H](O)c2ccc(C(N)=O)cc2)NC(=O)[C@H]([C@@H](O)c2ccc(C(N)=O)cc2)NC(=O)[C@](C)(CO)NC(=O)[C@H](Cc2c[nH]c3c(C#N)cccc23)NC(=O)[C@H](Cc2ccc(C(=O)O)cc2)NC(=O)[C@H](CC(N)=O)NC(=O)[C@H]2C[C@H](O)CN2C(=O)[C@H](Cc2c[nH]c3ncccc23)NC(=O)[C@@H]2CC[C@@H](O)CN2C(=O)[C@H](Cc2ccncc2)NC1=O [SEQ ID NO. 90] (cyclo([4Pal][Pip(5R-OH)][Trp(7-aza)][dHyp]N[Phe(4-COOH)][Trp(7-CN)][αMeS][X28][X44][Sar][Trp(βS-Me,7-OMe)][X1][Nle]))
[1]
  IC50: 1.2 nM
[2]
  Kd: 0.12 nM

## CCCCC[C@@H]1NC(=O)[C@@H]2CC[C@@H](C2)NC(=O)[C@H]([C@@H](C)c2c[nH]c3c(OC)cccc23)NC(=O)CN(C)C(=O)[C@H](Cc2ccc(C(N)=O)cc2)NC(=O)[C@H](Cc2ccc(C(N)=O)cc2)NC(=O)[C@](C)(CO)NC(=O)[C@H](Cc2c[nH]c3c(C#N)cccc23)NC(=O)[C@H](Cc2ccc(C(=O)O)cc2)NC(=O)[C@H](CC(N)=O)NC(=O)[C@H]2C[C@H](O)CN2C(=O)[C@H](Cc2c[nH]c3ccccc23)NC(=O)[C@H]([C@H](C)O)NC(=O)[C@H]([C@@H](C)c2ccncc2)NC1=O [SEQ ID NO. 91] (cyclo([Ahp(2)][4Pal(3S-Me)][aThr]W[dHyp]N[Phe(4-COOH)][Trp(7-CN)][αMeS][Phe(4-CONH2)][Phe(4-CONH2)][Sar][Trp(βS-Me,7-OMe)][X1]))
[1]
  IC50: 0.9 nM
[2]
  Kd: 0.24 nM

## C=CCC[C@@H]1NC(=O)[C@@H]2CC[C@@H](C2)NC(=O)[C@H]([C@@H](C)c2c[nH]c3c(OC)cccc23)NC(=O)CN(C)C(=O)[C@H](Cc2ccc(C(N)=O)cc2)NC(=O)[C@H](Cc2ccc(C(N)=O)cc2)NC(=O)[C@](C)(CO)NC(=O)[C@H](Cc2c[nH]c3c(Cl)cccc23)NC(=O)[C@H](Cc2ccc(C(=O)O)cc2)NC(=O)[C@H](CC(N)=O)NC(=O)[C@H]2C[C@H](O)CN2C(=O)[C@H](Cc2c[nH]c3ccccc23)NC(=O)[C@@H]2CC[C@@H](O)CN2C(=O)[C@H](Cc2ccncc2)NC1=O [SEQ ID NO. 103] (cyclo([4Pal][Pip(5R-OH)]W[dHyp]N[Phe(4-COOH)][Trp(7-Cl)][αMeS][Phe(4-CONH2)][Phe(4-CONH2)][Sar][Trp(βS-Me,7-OMe)][X1][Gly(But-3-enyl)]))
[1]
  IC50: 0.8 nM
[2]
  Kd: 0.05 nM

## CCCC[C@@H]1NC(=O)[C@@H]2CC[C@@H](C2)NC(=O)[C@H]([C@@H](C)c2c[nH]c3c(OC)cccc23)NC(=O)CN(C)C(=O)[C@H](Cc2ccc(C(=O)O)cc2F)NC(=O)[C@H](Cc2ccc(C(=O)O)cc2)NC(=O)[C@](C)(CO)NC(=O)[C@H](Cc2c[nH]c3c(Cl)cccc23)NC(=O)[C@H](Cc2ccncc2)NC(=O)[C@H](CC(N)=O)NC(=O)[C@H](CCC(=O)O)N(C)C(=O)[C@H](Cc2c[nH]c3ccccc23)NC(=O)[C@@H]2CNCCN2C(=O)[C@H](Cc2ccncc2)NC1=O [SEQ ID NO. 107] (cyclo([4Pal][Trp(7-Cl)][αMeS][Phe(4-COOH)][Phe(2-F,4-COOH)][Sar][Trp(βS-Me,7-OMe)][X1][Nle][4Pal][Pip(4-aza)]W[NMeE]N))
[1]
  IC50: 1 nM
[2]
  Kd: 0.3 nM
